For assay [1], the system named is influenza A virus. Also on record: species or system BALB/c mice. To be noted: mouse, in vivo.
The subject of assay [2] is influenza B virus. Also on record: species or system BALB/c mice. To be noted: mouse, in vivo.

As to `CCOC(=O)C1=C[C@@H](OC(CC)CC)[C@H](NC(C)=O)[C@@H](N)C1` [Tamiflu, oseltamivir phosphate], the “death rate (FIG. 4a)” value in assay [1] worked out at 33%. For the same compound, in assay [2], the clinical symptoms result was “significant weight loss, cough, deem and messy hairs, decreased activity”; the survival rate amounted to 100%.

These data come from patent publication US9657263B2 (priority 2010, dated 2017).
